We go through one molecule from paper PMC7647782, “Cytotoxic, Antioxidant, and Metabolic Enzyme Inhibitory Activities of Euphorbia cyparissias Extracts” (Oxidative Medicine and Cellular Longevity, 2020).

The target of the test is DrPLA2-IB (Camelus dromedarius, UniProt A0A5N4C9D4). Kind of test: Phospholipase activity inhibition, dromedary PLA2-IB. The test is classed as biochemical. The method, then: Dromedary (DrPlA2-IB), porcine (PPPlA2-IB), and stingray group IB phospholipases (SPLA2-IB) were purified and prepared as described in our previous works and De Haas et al., respectively. Dromedary (DrPL), stingray (SPL), and porcine (PPL) lipases were also purified according to protocols optimized in previous works. The enzymes β-glucosidase, α-amylase, and XO were purchased from Sigma-Aldrich (St. Louis, MO, USA).
The phospholipase activities were measured based on the De Araújo and Radvanyi method. The inhibitory effect of various extracts was determined using samples of dromedary, stingray, and porcine digestive group IB phospholipases (PLA2-IB). A 10 μL sample of ethanolic or aqueous extract was mixed with 10 μL of PLA2-GIB and preincubated for 20 min at room temperature. The mixture was added to 1 mL of the substrate, which was composed of lecithin (3.5 mM) solubilized in 100 mM NaCl, 3 mM sodium taurodeoxycholate, 10 mM CaCl2, and 0.055 mM red phenol at a pH of 7.6. The activity was verified by measuring spectrophotometrically the absorbance at 558 nm for 5 min. The inhibition percentage was calculated by measuring residual activity compared to negative control assay (absence of extract). The IC50 values were determined from the curve.
The activities of these enzymes were measured using the pH-stat technique on olive oil emulsion at optimal conditions for enzyme activity. […]

Sequence of DrPLA2-IB (A0A5N4C9D4 23-145): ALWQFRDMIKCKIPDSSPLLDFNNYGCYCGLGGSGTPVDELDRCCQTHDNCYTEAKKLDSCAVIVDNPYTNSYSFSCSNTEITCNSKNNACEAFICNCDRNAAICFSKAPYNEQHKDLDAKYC

In turn, `CC1(C)CC[C@]2(C(=O)O)CC[C@]3(C)C(=CC[C@@H]4[C@@]5(C)CC[C@H](O)C(C)(C)[C@@H]5CC[C@]43C)[C@@H]2C1` [Oleanolic acid, oleanolic acid] gave an IC50 of 174 µM.

As a reminder, the IC50 is the concentration that inhibits the measured activity by half.
